# Measurements from the kinase profiling compilation of Christmann-Franck et al. (2016).
# Several values for one entry are separate records, joined by “and”; a condition that tells them apart may be missing. Identical values can stand only once.
# Molecular target: DAPK3 (human) (UniProt O43293)
# Assay: radiometric filter-binding kinase assay, Kinase HotSpot
# Details: compound 0.5 µM; ATP 10 µM
# Chain of DAPK3 (human) (O43293 whole entry, looked up): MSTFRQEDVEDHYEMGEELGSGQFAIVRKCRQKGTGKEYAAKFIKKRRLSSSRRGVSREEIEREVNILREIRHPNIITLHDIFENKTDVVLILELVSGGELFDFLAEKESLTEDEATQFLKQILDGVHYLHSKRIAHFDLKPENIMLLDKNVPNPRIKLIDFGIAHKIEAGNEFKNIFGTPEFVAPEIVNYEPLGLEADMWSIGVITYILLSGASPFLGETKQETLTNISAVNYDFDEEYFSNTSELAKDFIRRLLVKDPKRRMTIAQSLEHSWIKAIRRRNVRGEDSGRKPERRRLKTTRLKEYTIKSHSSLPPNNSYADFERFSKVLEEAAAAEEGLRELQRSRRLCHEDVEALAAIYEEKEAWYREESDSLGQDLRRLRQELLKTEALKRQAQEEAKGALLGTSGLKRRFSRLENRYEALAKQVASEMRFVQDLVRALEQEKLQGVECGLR
row,SMILES,residual activity
1,Cc1ccc(NC(=O)c2ccc(CN3CCN(C)CC3)cc2)cc1Nc1nc(-c2cccnc2)cs1,100%
2,CC(C)[C@H](CO)Nc1nc(Nc2cccc(Cl)c2)c2ncn(C(C)C)c2n1,104%
3,COc1ccc(-c2cnc3c(-c4ccsc4)cnn3c2)cc1,81.9%

# Molecular target: CDK3 CCNE1 (human) (UniProt Q00526+P24864)
# Assay: as above
# Details: compound 0.5 µM; ATP 10 µM
# Chain of CDK3 CCNE1 (human) (P24864 whole entry, looked up): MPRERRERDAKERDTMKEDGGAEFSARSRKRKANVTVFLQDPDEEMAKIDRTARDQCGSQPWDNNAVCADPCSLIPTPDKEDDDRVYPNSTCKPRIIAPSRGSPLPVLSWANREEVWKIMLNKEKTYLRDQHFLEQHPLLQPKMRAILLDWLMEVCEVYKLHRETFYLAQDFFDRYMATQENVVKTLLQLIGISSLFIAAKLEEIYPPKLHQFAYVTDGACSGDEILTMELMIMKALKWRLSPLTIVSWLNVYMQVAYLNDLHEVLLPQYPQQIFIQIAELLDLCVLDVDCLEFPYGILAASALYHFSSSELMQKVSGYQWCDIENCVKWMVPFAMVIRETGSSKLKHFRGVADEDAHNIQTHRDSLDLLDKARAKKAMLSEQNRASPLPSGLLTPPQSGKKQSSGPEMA
# Chain of CDK3 CCNE1 (human) (Q00526 whole entry, looked up): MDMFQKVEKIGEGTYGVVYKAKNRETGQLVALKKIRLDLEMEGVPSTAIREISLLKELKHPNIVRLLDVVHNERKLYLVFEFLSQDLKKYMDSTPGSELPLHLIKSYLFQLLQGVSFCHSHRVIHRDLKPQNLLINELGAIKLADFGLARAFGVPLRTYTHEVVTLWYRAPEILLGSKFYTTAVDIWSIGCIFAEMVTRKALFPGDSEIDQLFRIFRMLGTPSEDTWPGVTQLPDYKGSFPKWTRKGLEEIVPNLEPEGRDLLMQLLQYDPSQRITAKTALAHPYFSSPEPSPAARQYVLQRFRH
row,SMILES,residual activity
1,Oc1ccc(-c2nc(-c3ccc(F)cc3)c(-c3ccncc3)[nH]2)cc1,96.7%
2,Cc1ccc(NC(=O)c2ccc(CN3CCN(C)CC3)cc2)cc1Nc1nc(-c2cccnc2)cs1,90.2%
3,CC(C)[C@H](CO)Nc1nc(Nc2cccc(Cl)c2)c2ncn(C(C)C)c2n1,34.5%
4,COc1ccc(-c2cnc3c(-c4ccsc4)cnn3c2)cc1,84.9%

# Molecular target: CAMK2B (human) (UniProt Q13554)
# Assay: as above
# Details: compound 0.5 µM; ATP 10 µM
row,SMILES,residual activity
1,Oc1ccc(-c2nc(-c3ccc(F)cc3)c(-c3ccncc3)[nH]2)cc1,96.4%
2,Cc1ccc(NC(=O)c2ccc(CN3CCN(C)CC3)cc2)cc1Nc1nc(-c2cccnc2)cs1,100%
3,CC(C)[C@H](CO)Nc1nc(Nc2cccc(Cl)c2)c2ncn(C(C)C)c2n1,94.3%
4,COc1ccc(-c2cnc3c(-c4ccsc4)cnn3c2)cc1,88.7%

# Molecular target: CDK4 CCND1 (human) (UniProt P24385+P11802)
# Assay: as above
# Details: compound 0.5 µM; ATP 10 µM
# Chain of CDK4 CCND1 (human) (P11802 whole entry, looked up): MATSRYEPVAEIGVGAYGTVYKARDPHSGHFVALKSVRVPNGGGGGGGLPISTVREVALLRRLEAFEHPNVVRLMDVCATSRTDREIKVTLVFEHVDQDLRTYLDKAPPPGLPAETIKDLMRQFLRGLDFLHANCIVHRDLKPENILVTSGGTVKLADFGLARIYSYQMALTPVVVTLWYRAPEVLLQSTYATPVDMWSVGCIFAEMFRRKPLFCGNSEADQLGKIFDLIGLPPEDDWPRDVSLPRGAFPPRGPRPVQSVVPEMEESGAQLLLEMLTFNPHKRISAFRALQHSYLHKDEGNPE
# Chain of CDK4 CCND1 (human) (P24385 whole entry, looked up): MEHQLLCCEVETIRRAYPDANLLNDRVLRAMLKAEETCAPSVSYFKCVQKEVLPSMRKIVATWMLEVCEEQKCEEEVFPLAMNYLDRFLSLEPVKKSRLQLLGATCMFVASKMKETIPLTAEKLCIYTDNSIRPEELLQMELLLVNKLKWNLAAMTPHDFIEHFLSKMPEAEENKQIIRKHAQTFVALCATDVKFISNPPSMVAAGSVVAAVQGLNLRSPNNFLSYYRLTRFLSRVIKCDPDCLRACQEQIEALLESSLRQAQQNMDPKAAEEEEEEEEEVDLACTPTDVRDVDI
row,SMILES,residual activity
1,Oc1ccc(-c2nc(-c3ccc(F)cc3)c(-c3ccncc3)[nH]2)cc1,105%
2,Cc1ccc(NC(=O)c2ccc(CN3CCN(C)CC3)cc2)cc1Nc1nc(-c2cccnc2)cs1,94.1%
3,CC(C)[C@H](CO)Nc1nc(Nc2cccc(Cl)c2)c2ncn(C(C)C)c2n1,83.4%
4,COc1ccc(-c2cnc3c(-c4ccsc4)cnn3c2)cc1,69.8%

# Molecular target: MYLK (human) (UniProt Q15746)
# Assay: as above
# Details: compound 0.5 µM; ATP 10 µM
row,SMILES,residual activity
1,Oc1ccc(-c2nc(-c3ccc(F)cc3)c(-c3ccncc3)[nH]2)cc1,106%
2,Cc1ccc(NC(=O)c2ccc(CN3CCN(C)CC3)cc2)cc1Nc1nc(-c2cccnc2)cs1,96.2%
3,CC(C)[C@H](CO)Nc1nc(Nc2cccc(Cl)c2)c2ncn(C(C)C)c2n1,95.1%
4,COc1ccc(-c2cnc3c(-c4ccsc4)cnn3c2)cc1,102%

# Molecular target: EPHB2 (human) (UniProt P29323)
# Assay: as above
# Details: compound 0.5 µM; ATP 10 µM
# Chain of EPHB2 (human) (P29323 whole entry, looked up): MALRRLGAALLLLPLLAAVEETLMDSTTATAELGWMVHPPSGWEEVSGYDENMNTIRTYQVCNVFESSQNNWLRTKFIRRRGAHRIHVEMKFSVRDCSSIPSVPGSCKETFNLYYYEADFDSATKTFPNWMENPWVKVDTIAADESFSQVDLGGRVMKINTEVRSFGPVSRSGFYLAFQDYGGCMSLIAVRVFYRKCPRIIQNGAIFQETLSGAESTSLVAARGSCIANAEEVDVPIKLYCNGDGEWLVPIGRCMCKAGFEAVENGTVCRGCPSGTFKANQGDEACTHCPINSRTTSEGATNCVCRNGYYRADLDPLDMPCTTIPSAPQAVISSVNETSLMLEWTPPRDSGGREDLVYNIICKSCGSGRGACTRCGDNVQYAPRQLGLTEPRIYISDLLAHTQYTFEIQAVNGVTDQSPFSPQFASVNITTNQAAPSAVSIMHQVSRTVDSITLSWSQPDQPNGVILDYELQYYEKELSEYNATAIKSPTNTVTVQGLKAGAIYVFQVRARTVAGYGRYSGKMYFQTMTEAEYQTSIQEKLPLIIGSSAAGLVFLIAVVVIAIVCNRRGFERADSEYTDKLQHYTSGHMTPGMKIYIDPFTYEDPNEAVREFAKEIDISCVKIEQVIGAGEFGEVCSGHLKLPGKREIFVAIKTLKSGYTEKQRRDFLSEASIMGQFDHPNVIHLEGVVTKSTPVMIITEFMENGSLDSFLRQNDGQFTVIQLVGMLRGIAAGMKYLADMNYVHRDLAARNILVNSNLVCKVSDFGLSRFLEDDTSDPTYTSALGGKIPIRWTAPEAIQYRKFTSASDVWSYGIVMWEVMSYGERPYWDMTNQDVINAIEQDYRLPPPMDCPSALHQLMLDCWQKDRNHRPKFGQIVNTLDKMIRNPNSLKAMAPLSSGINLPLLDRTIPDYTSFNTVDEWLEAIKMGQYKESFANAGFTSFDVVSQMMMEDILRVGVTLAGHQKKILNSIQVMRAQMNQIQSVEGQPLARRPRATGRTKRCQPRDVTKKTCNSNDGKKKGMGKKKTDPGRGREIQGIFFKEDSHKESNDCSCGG
row,SMILES,residual activity
1,Oc1ccc(-c2nc(-c3ccc(F)cc3)c(-c3ccncc3)[nH]2)cc1,105%
2,Cc1ccc(NC(=O)c2ccc(CN3CCN(C)CC3)cc2)cc1Nc1nc(-c2cccnc2)cs1,95.3%
3,CC(C)[C@H](CO)Nc1nc(Nc2cccc(Cl)c2)c2ncn(C(C)C)c2n1,99.3%
4,COc1ccc(-c2cnc3c(-c4ccsc4)cnn3c2)cc1,80.5%

# Molecular target: MAP3K5 (human) (UniProt Q99683)
# Assay: as above
# Details: compound 0.5 µM; ATP 10 µM
# Chain of MAP3K5 (human) (Q99683 whole entry, looked up): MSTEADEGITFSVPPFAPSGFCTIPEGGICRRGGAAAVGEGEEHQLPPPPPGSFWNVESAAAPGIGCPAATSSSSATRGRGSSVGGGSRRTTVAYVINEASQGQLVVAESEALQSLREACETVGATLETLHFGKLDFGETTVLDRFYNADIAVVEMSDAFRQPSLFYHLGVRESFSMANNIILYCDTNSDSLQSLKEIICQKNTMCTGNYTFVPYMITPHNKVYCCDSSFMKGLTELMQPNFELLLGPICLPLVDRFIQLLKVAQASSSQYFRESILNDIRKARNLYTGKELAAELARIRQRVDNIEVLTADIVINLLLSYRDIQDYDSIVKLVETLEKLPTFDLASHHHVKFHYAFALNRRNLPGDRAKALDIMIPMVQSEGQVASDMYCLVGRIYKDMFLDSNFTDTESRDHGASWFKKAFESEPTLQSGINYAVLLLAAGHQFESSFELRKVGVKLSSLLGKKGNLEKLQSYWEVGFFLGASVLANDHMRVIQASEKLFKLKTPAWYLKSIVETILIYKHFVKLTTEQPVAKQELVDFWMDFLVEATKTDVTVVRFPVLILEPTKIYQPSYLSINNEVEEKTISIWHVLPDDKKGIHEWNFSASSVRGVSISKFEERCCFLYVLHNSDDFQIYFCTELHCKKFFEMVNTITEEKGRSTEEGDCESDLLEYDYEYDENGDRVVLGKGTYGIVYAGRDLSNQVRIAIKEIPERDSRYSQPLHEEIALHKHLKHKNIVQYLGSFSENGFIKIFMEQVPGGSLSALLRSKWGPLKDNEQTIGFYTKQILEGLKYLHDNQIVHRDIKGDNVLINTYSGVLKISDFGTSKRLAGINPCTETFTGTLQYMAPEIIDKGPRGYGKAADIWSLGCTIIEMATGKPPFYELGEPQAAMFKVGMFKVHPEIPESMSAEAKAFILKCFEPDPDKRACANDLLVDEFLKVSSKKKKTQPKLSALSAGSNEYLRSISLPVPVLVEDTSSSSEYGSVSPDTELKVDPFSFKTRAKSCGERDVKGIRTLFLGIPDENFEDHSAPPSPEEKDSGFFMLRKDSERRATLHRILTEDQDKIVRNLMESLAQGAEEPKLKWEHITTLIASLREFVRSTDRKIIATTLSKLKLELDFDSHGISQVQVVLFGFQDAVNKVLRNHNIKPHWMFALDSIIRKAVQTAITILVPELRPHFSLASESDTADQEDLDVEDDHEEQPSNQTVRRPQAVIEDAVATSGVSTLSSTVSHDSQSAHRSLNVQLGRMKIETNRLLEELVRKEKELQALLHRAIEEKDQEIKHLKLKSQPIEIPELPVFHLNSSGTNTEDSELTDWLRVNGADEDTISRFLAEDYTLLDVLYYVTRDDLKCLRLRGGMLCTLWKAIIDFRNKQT
row,SMILES,residual activity
1,Oc1ccc(-c2nc(-c3ccc(F)cc3)c(-c3ccncc3)[nH]2)cc1,105%
2,Cc1ccc(NC(=O)c2ccc(CN3CCN(C)CC3)cc2)cc1Nc1nc(-c2cccnc2)cs1,95%
3,CC(C)[C@H](CO)Nc1nc(Nc2cccc(Cl)c2)c2ncn(C(C)C)c2n1,108%
4,COc1ccc(-c2cnc3c(-c4ccsc4)cnn3c2)cc1,105%

# Molecular target: MAP3K3 (human) (UniProt Q99759)
# Assay: as above
# Details: compound 0.5 µM; ATP 10 µM
row,SMILES,residual activity
1,Oc1ccc(-c2nc(-c3ccc(F)cc3)c(-c3ccncc3)[nH]2)cc1,103%
2,Cc1ccc(NC(=O)c2ccc(CN3CCN(C)CC3)cc2)cc1Nc1nc(-c2cccnc2)cs1,108%
3,CC(C)[C@H](CO)Nc1nc(Nc2cccc(Cl)c2)c2ncn(C(C)C)c2n1,102%
4,COc1ccc(-c2cnc3c(-c4ccsc4)cnn3c2)cc1,99.4%

# Molecular target: FGFR4 (human) (UniProt P22455)
# Assay: as above
# Details: compound 0.5 µM; ATP 10 µM
# Chain of FGFR4 (human) (P22455 whole entry, looked up): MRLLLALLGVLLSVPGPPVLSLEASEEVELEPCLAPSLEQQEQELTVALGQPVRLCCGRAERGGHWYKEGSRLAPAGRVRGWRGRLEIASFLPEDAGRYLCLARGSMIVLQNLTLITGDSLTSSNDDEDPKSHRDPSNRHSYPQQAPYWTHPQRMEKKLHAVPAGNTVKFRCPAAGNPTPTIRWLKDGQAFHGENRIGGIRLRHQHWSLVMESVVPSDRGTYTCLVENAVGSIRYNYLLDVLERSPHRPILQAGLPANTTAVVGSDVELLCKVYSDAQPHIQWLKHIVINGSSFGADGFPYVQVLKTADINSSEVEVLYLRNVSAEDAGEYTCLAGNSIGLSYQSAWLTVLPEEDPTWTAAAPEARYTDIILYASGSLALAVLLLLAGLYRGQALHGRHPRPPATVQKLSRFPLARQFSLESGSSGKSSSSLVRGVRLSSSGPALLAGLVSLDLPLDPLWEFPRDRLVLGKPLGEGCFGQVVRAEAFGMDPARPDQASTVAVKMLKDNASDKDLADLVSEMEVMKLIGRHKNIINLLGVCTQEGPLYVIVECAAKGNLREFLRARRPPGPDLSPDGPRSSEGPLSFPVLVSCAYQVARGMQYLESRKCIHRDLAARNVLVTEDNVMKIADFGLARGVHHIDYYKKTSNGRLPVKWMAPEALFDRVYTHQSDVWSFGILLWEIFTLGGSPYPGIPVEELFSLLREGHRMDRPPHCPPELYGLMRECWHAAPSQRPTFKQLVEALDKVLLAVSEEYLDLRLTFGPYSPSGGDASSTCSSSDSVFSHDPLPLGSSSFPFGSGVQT
row,SMILES,residual activity
1,Oc1ccc(-c2nc(-c3ccc(F)cc3)c(-c3ccncc3)[nH]2)cc1,92.9%
2,Cc1ccc(NC(=O)c2ccc(CN3CCN(C)CC3)cc2)cc1Nc1nc(-c2cccnc2)cs1,89.8%
3,CC(C)[C@H](CO)Nc1nc(Nc2cccc(Cl)c2)c2ncn(C(C)C)c2n1,79%
4,COc1ccc(-c2cnc3c(-c4ccsc4)cnn3c2)cc1,89.2%

# Molecular target: LYN (human) (UniProt P07948)
# Assay: as above
# Details: compound 0.5 µM; ATP 10 µM
row,SMILES,residual activity
1,Oc1ccc(-c2nc(-c3ccc(F)cc3)c(-c3ccncc3)[nH]2)cc1,94.8% and 98.4%
2,Cc1ccc(NC(=O)c2ccc(CN3CCN(C)CC3)cc2)cc1Nc1nc(-c2cccnc2)cs1,16.2% and 18.7%
3,CC(C)[C@H](CO)Nc1nc(Nc2cccc(Cl)c2)c2ncn(C(C)C)c2n1,60.2% and 82.5%
4,COc1ccc(-c2cnc3c(-c4ccsc4)cnn3c2)cc1,81.8% and 92.7%

# Molecular target: STK33 (human) (UniProt Q9BYT3)
# Assay: as above
# Details: compound 0.5 µM; ATP 10 µM
row,SMILES,residual activity
1,Oc1ccc(-c2nc(-c3ccc(F)cc3)c(-c3ccncc3)[nH]2)cc1,103%
2,Cc1ccc(NC(=O)c2ccc(CN3CCN(C)CC3)cc2)cc1Nc1nc(-c2cccnc2)cs1,91.1%
